In ChEMBL document CHEMBL5356955, “Thiamine analogues featuring amino-oxetanes as potent and selective inhibitors of pyruvate dehydrogenase” (Bioorg Med Chem Lett, 2024):

Tests used:
[1] = target: T1, Pyruvate dehydrogenase E1 component subunit alpha, somatic form, mitochondrial (Sus scrofa, UniProt P29804); test: Inhibition of porcine PDHc E1-subunit incubated for 30 mins followed by pyruvate addition in presence of thiamine pyrophosphate by microplate reader analysis
T1 sequence (P29804 whole entry): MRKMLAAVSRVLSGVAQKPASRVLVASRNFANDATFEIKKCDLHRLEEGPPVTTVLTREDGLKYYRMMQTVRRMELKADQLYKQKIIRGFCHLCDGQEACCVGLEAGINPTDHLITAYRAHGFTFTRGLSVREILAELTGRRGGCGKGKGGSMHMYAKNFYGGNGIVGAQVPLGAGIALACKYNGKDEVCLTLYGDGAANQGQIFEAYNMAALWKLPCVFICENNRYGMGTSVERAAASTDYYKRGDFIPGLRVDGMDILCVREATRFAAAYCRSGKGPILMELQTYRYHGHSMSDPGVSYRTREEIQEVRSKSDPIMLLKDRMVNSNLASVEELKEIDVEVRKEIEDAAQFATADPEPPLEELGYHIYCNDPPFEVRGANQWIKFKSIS

[2] = target: T1, Pyruvate dehydrogenase E1 component subunit alpha, somatic form, mitochondrial; test: Binding affinity to porcine PDHc E1-subunit assessed as inhibition constant incubated for 30 mins followed by pyruvate addition by microplate reader analysis
[3] = target: T2, Pyruvate dehydrogenase E1 component subunit alpha, somatic form, mitochondrial (Sus scrofa) (UniProt P29804); test: Inhibition of porcine PDHc E1-subunit at 10 uM at 1:1 compound: thiamine pyrophosphate ratio incubated for 30 mins followed by pyruvate addition by microplate reader analysis relative to control
T2 sequence (whole entry): T1 sequence (P29804 whole entry)

[4] = target: T2, Pyruvate dehydrogenase E1 component subunit alpha, somatic form, mitochondrial (Sus scrofa); test: Inhibition of porcine PDHc E1-subunit at 10 uM at 1:5 compound: thiamine pyrophosphate ratio incubated for 30 mins followed by pyruvate addition by microplate reader analysis relative to control
[5] = Metabolic stability of the compound assessed as porcine liver esterase mediated hydrolysis at pH 7.4 measured after 4 hrs by UPLC analysis; type: ADME, Sus scrofa; conditions: pig, isolated protein, pH 7.4, 4 h
[6] = target: T2, Pyruvate dehydrogenase E1 component subunit alpha, somatic form, mitochondrial (Sus scrofa); test: Binding affinity to porcine PDHc E1-subunit assessed as KM(TPP)/Ki ratio incubated for 30 mins followed by pyruvate addition by microplate reader analysis
[7] = Permeability of the compound assessed as absorbed fraction by PAMPA assay; type: ADME
[8] = Stability of the compound assessed as compound remaining in 0.1M aqueous phosphate buffer at pH 7.4 incubated for 2 hrs by NMR analysis; type: physicochemical; conditions: read-out: Stability
[9] = Thermal stability of the compound assessed as compound remaining in DMSO at 70 degreeC incubated for 2 hrs by NMR analysis; type: physicochemical; conditions: read-out: Stability
[10] = Stability of the compound assessed as compound remaining in 1 M aqueous NaOH at 37 degreeC incubated for 2 hrs by NMR analysis; type: physicochemical; conditions: read-out: Stability
[11] = Stability of the compound assessed as compound remaining in 0.1 M aqueous K2CO3 incubated for 1 hr by NMR analysis; type: physicochemical; conditions: read-out: Stability
[12] = Stability of the compound assessed as compound remaining in 1 M aqueous HCl at 37 degreeC incubated for 2 hrs by NMR analysis; type: physicochemical; conditions: read-out: Stability
[13] = Drug metabolism in porcine liver esterase assessed as 2-(4-((4-amino-2-methylpyrimidin-5-yl)methyl)-3-methylthiophen-2-yl)ethan-1-ol formation at pH 7.4 measured after 4 hrs; type: ADME, Sus scrofa; conditions: pig, pH 7.4, 4 h
[14] = Stability of the compound assessed as porcine liver esterase mediated compound degradation by measuring compound recovery at 0.05 mmol measured after 30 mins by NMR analysis; type: ADME, Sus scrofa; conditions: pig, read-out: Stability

IC50 [1]	Ki [2]	inhibition [3]	inhibition [4]	Ratio [6]	permeability [7]	Compound	also measured
30 µM	0.15 µM	–	–	–	–	Cc1ncc(Cn2cc(CCO)nn2)c(N)n1	–
21 µM	0.105 µM	–	–	0.48	–	Cc1ncc(CN2CS[C@H](CCO)[C@@H]2C)c(N)n1 (racemic)	–
6.3 µM	0.0315 µM	63%	25%	1.59	31%	COc1ccc(C(=O)OCCc2cn(Cc3cnc(C)nc3N)nn2)cc1	–
0.99 µM	0.00495 µM	> 90%	65%	10.1	44%	COc1ccc(C2(NCCc3scc(Cc4cnc(C)nc4N)c3C)COC2)cc1	remaining at 2 h [8]: > 90%; remaining at 2 h [9]: > 90%; remaining at 2 h [10]: > 90%; remaining at 1 h [11]: > 90%; remaining at 2 h [12]: 22%; remaining at 0.5 h [14]: > 90%; Stability [5]: Stable
3.5 µM	0.0175 µM	–	–	2.86	–	COc1ccc(C(=O)OCC[C@H]2SCN(Cc3cnc(C)nc3N)[C@H]2C)cc1 (racemic)	–

Continued, molecule first:

Compound	IC50 [1]	Ki [2]	inhibition [3]	inhibition [4]	Ratio [6]	permeability [7]	also measured
Cc1ncc(Cc2coc(CCNC(=O)c3ccc(Cl)cc3)c2)c(N)n1	9.2 µM	–	–	–	–	–	–
Cc1ncc(Cn2cc(CCOC(=O)c3cccnc3)nn2)c(N)n1	3 µM	–	–	–	–	–	–
COc1ccc(C(=O)NCCc2scc(Cc3cnc(C)nc3N)c2C)cc1	5.1 µM	0.0255 µM	65%	28%	1.96	35%	Stability [5]: Stable
COc1ccc(C(=O)NCCc2cn(Cc3cnc(C)nc3N)nn2)cc1	35 µM	0.175 µM	22%	< 10%	0.29	26%	–
COc1ccc(C(=O)OCCc2scc(Cc3cnc(C)nc3N)c2C)cc1	0.89 µM	0.00445 µM	> 90%	72%	11.2	39%	remaining at 2 h [8]: > 90%; remaining at 2 h [9]: > 90%; remaining at 2 h [10]: 15%; remaining at 1 h [11]: 31%; remaining at 2 h [12]: 43%; Drug metabolism [13]: Metabolite_Detected; remaining at 0.5 h [14]: < 10%; Stability [5]: Unstable
Cc1ncc(Cn2cc(CCNC(=O)c3ccc(Cl)cc3)nn2)c(N)n1	66 µM	–	–	–	–	–	–
COc1ccc(C2(NCCc3cn(Cc4cnc(C)nc4N)nn3)COC2)cc1	7.8 µM	0.039 µM	58%	20%	1.28	35%	–
Cc1ncc(Cc2coc(CCNC(=O)c3cccnc3)c2)c(N)n1	2.5 µM	–	–	–	–	–	–
Cc1ncc(Cc2csc(CCO)c2C)c(N)n1 [3-DEAZATHIAMINE]	3.6 µM	0.018 µM	–	–	2.78	–	–
Cc1ncc(Cc2coc(CCOC(=O)c3ccc(Cl)cc3)c2)c(N)n1	3.3 µM	–	–	–	–	–	–
